pIC50: −log10 of the molar value.
Assays:
[1] = system: ERG26 heterozygous strain (erg26Δ/ERG26); test: Haploinsufficiency profiling (HIP); format: cell-based, S. cerevisiae; conditions: FR171456 at IC30 (4 μM)
Protocol: The HIP assay was performed in 24-well plates (Greiner 662102), with 1.6 ml per well YPD. Experimental compounds were tested at n=2 within the same plate at or close to their IC30 concentration. Each plate contained two no drug controls, one positive control (Benomyl), 10 experimental compounds in duplicates and one contamination control that received no cells. A standard experiment was 4 plates per 40 experimental compounds processed robotically without human intervention. YPD per compound filled wells were inoculated with ∼250 yeast cells per strain (100 μl of a 1.5-OD600 per ml culture) from an overnight log phase preculture to start the experiment (Supplementary Fig. 2). The plates were pipetted with a standard 96 pipettor head by providing tip boxes preconfigured with a special tip pattern. Plates were incubated for 16 h in a robotic shaking incubator at 30 °C/550 r.p.m. allowing for ∼5 doublings. ∼250 yeast cells per strain (120 μl of a 1.2-OD600 per ml culture) were subsequently transferred into a preconfigured 24-well plate that was stored in a robotic plate reservoir at 4 °C until 30 min prior to its use where it was prewarmed to 30 °C. Once inoculated the new plate was incubated at 30 °C/550 r.p.m. to allow the next five yeast generations (generation 6–10) and the plate containing the first five doubling cultures was stored at 4 °C. […]

[2] = system: S. cerevisiae (BY4743 strain); test: Yeast growth inhibition dose response (OD600); format: cell-based; conditions: BY4743, 14 h, 30 °C, YPD, 2% DMSO
Protocol: Figure 2 FR171456 targets Erg26p in S. cerevisiae. (a) Structures of FR171456, and two related triterpenes (compound 1, compound 2). (b) Duplicate 12-point Dose response curves of wild-type diploid yeast with three compounds in a. Strain BY4743 was grown for 14 h at 30 °C in YPD media with 2% DMSO containing a dilution series of FR171456: black; Compound-1: light grey circles, and Compound-2: light grey squares. Y axis: OD600 absorbance indicating yeast growth, x axis: compound concentrations (log10 μM). (c) Haploinsufficiency and homozygous profiling (HIP resp. HOP) for FR171456 at 4 μM. Each mutant strain in the pool is represented by a circle (non-essential genes) or a square (essential genes). The, y axis represents strain sensitivity and x axis represents z-score (specificity). In (d), the z-scores of the HIP pool strains (y axis) plotted against increasing doses of FR171456 (x axis; μM). (e) Relative compound sensitivity profile of the erg26Δ/ERG26 strain across HIP experiments performed with 1,800 diverse small molecule yeast proliferation inhibitors. TEXT PRINTED IN THE PICTURE: (a) FR171456: MW 516.68; S.c. […] IC50 >200 μM | (a) Compound 2: MW 532.68; S.c. IC50 >200 μM

C=C(CCC(C)C1CCC2C1(C)CC(O)C13CC14C(=O)CC(O)C(C)(C(=O)O)C4C(=O)CC23O)C(C)C [FR171456, (1R,2aR,3R,5aR,5bS,7aR,8S,9S,11aS,12aR)-1,5b,9-trihydroxy-2a,8-dimethyl-3-((R)-6-methyl-5-methyleneheptan-2-yl)-7,11-dioxohexadecahydrocyclopenta[a]cyclopropa[e]-phenanthrene-8-carboxylic acid]
strain sensitivity in HIP profile [1]: most significant hypersensitivity | pIC50 [2]: 4.87 | pIC50 ([2]; Saccharomyces cerevisiae, 14 h): 4.85

Reference: PMC4633953, “FR171456 is a specific inhibitor of mammalian NSDHL and yeast Erg26p” (Nature Communications, 2015)
